Data reported in patent US20250361307A1, “COMBINATION THERAPIES FOR TREATING HYPERPROLIFERATIVE DISORDERS” (X4 Pharmaceuticals, Inc., priority 2022, published 2025).

How the values were obtained:
MWCL-1 cells [1] = assay: BMSC-induced IgM hypersecretion, MWCL-1/HS-27A coculture (ELISA); type: cell-based
Experimental: (§1) BMSCs were cultured in 96-, 48-, or 24-well plates until 90% confluence. […] Cells were coincubated for 48 or 72 hours followed by measurement of cell viability, apoptosis, IgM, and IL-6 release. The IgM levels were quantitated using a human IgM Enzyme-linked immunosorbent assay (ELISA) kit (Abcam, #ab214568) according to the manufacturer's instructions. IL-6 levels were quantitated using an IL-6 ELISA MAX™ kit (BioLegend, #430515) per manufacturer's recommendations. For all ELISA kits, plates were developed with 3,3′,5,5′-tetramethylbenzidine (TMB) development solution or a biotinylated antihuman IL-6 detection antibody/avidin horseradish peroxidase (HRP) solution. The reaction was stopped with the stop solution, and absorbance was read at 450 nm with a microplate reader (Synergy™ HT, BioTek Instruments).

MWCL-1 cells [2] = assay: Adhesion assay of MWCL-1 cells to BMSC monolayer; type: cell-based; conditions: pretreatment, 4 hours (FIG. 3A)
Experimental: MWCL-1 cells were labeled with 1 μM Calcein AM. After 10 minutes at 37° C., cells were washed, resuspended in medium containing 1% FBS, and treated with compounds for 30 minutes (2.25× 10^5 cells/mL). MWCL-1 cells were transferred to the BMSC monolayer. After 4 hours, nonadherent cells were removed by gently washing with phosphate-buffered saline (PBS). Remaining cells were harvested, resuspended in flow buffer (Hanks balanced salt solution+20 mM HEPES+0.5% […]) and analyzed by flow cytometry.

MWCL-1 cells [3] = assay: Transwell migration assay; type: cell-based
Experimental: Cell migration toward CXCL12 gradient or BMSC monolayer was determined using the Transwell migration assay. MWCL-1 cells were stained with 500 nM Calcein AM (Invitrogen, #C1430) and preincubated with mavorixafor for 15 minutes before transfer (5×10^5 cells) to an upper well of a […] pore size Transwell® (Corning, #3421). […] Wells without CXCL12 were treated with 10 μM LIT-927 (Selleck Chemicals, #S8813), a neutraligand of CXCL12, to serve as background control. After 4 hours of incubation, cells that migrated to the lower chambers were collected and resuspended in Dulbecco's phosphate-buffered saline (DPBS) containing Precision Count Beads™ (BioLegend, #424902). Migrated cells and counting beads were counted by flow cytometry

ALL cells = conditions: cited from earlier work
MWCL-1 cells [4] = assay: Cell viability of MWCL-1 cells (CellTiter-Glo); type: cell-based; conditions: tested concentrations, 4 hours, data not shown
MWCL-1 cells [5] = assay: Apoptosis of MWCL-1 cells in coculture with HS-27A BMSCs; type: cell-based; conditions: for % apoptotic cells: with BMSC (HS-27a) (FIG. 13A)
Experimental: (§2) BMSCs were cultured in 96-, 48-, or 24-well plates until 90% confluence. MWCL-1 cells (density≈2×10^5 cells/mL) were pretreated with indicated concentration of mavorixafor together with indicated concentrations of B-cell-targeted inhibitors in medium containing 4% FBS for 1 hour and transferred to the BMSC monolayer. Cells were coincubated for 48 or 72 hours followed by measurement of cell viability, apoptosis, IgM, and IL-6 release.
(§3) Cells were washed with PBS, resuspended in Annexin V binding buffer (BioLegend, #422201), and stained with Alexa Fluor® 647 Annexin V (BioLegend, #640943), propidium iodide (BD Pharmingen, #51-66211E), and CD45 antibody (BioLegend, #368502) for 15 minutes at room temperature and analyzed by flow cytometry.

HS-27A and HS-5 BMSCs = assay: Apoptosis of BMSCs cocultured with WM cells; type: cell-based; conditions: WM cell-BMSC coculture, mavorixafor alone (FIG. 11A-B)
Experimental: as §3, with “BMSCs were cultured in 96-, 48-, or 24-well plates until 90% confluence. […] Cells were coincubated for 48 or 72 hours followed by measurement of cell viability, apoptosis, IgM, and IL-6 release. Cells” for “Cells”

[6] = Solubility of mavorixafor; type: physicochemical
WM cell-BMSC coculture = assay: IL-6 release in WM/BMSC coculture model (ELISA); type: cell-based; conditions: WM cell-BMSC coculture (FIG. 12)
Experimental: as §1

[7] = test system: cleavage of caspase-3 and PARP in MWCL-1 cells; assay: Immunoblotting of apoptotic markers; type: cell-based; conditions: MWCL-1 monoculture (FIG. 4G)
Experimental: Whole cells were lysed by radioimmunoprecipitation assay (RIPA) lysis buffer (Sigma-Aldrich, #R0278) with protease inhibitor cocktail (Roche Custom Biotech, #11697498001). Lysates were separated by sodium dodecyl sulfate polyacrylamide gel-electrophoresis (SDS-PAGE) electrophoresis and transferred to Trans-Blot® Turbo™ Mini PVDF Transfer Packs (Bio-Rad). Membranes were incubated with primary antibodies: anti-poly adenosine diphosphate (ADP)-ribose polymerase (PARP) (1:1000, Cell Signaling, #9542); Anti-Caspase 3 (1:1000, Cell Signaling, #9662) and antitubulin (1:5000, R&D, #MAB9344). Secondary HRP-conjugated antibodies (Abcam) were used at 1:10.000 dilution. Membranes were developed with enhanced chemiluminescence reagent (Amersham™ ECL Prime Western Blotting Detection Reagent, GE Healthcare) on LAS4000 gel documentation system.

[8] = patients with WHIM syndrome; cited from earlier work
[9] = Terminal half-life of mavorixafor; conditions: in vivo
[10] = test system: CXCL12-induced Ca2+ mobilization in MWCL-1 cells; assay: Calcium mobilization assay (Fluo-4 AM); type: cell-based; conditions: dose-dependent (FIG. 3D)
Experimental: MWCL-1 cells (2×10^5 cells/well) were seeded in transparent bottom, black 96-well plates coated with poly-L-lysine (BioCoat®, Corning) and serum-starved (medium with 1% FBS) for 24 hours. Medium was removed and cells were loaded with 100 μL of fluo-4 AM (3 μM, Invitrogen, #F14201) dye solution for 45 minutes at 37° C. Subsequently, 100 μL of assay buffer alone or assay buffer with compound dilutions was added, and the plates were equilibrated in the plate reader for an additional 20 minutes at 37° C. The CXCL12 was injected with simultaneous measurement of fluorescent signal (FlexStation® 3 Multi-Mode Microplate Reader, Molecular Devices). Raw traces were analyzed in SoftMax®Pro 7 Software (Molecular Devices). The arbitrary units were calculated as the difference between maximal and minimal signal after treatment injection, normalized to the baseline signal before injection.

MWCL-1 cells [11] = assay: Apoptosis of MWCL-1 cells in monoculture (Annexin V flow cytometry); type: cell-based
Experimental: BMSCs were cultured in 96-, 48-, or 24-well plates until 90% confluence. […] Cells were coincubated for 48 or 72 hours followed by measurement of cell viability, apoptosis, IgM, and IL-6 release.
as §3

[12] = test system: CXCR4 cell surface expression in MWCL-1 cells; assay: CXCR4 cell surface expression in MWCL-1 cells (flow cytometry); type: cell-based; conditions: MWCL-1 cocultured with HS-27A BMSCs (FIG. 2B)
Experimental: Flow experiments were performed with the CytoFLEX S Flow Cytometer (Beckman Coulter). Samples were analyzed using FCS Express Software (De Novo Software).
[…] Cells were stained with CXCR4 antibody (BD Pharmigen, #555976) and measured by flow cytometry.

MWCL-1 cells [13] = assay: IL-6-mediated IgM secretion in MWCL-1 cells (ELISA); type: cell-based; conditions: exogenous IL-6 (FIG. 1F)
Text: (§4) The IgM levels were quantitated using a human IgM Enzyme-linked immunosorbent assay (ELISA) kit (Abcam, #ab214568) according to the manufacturer's instructions. IL-6 levels were quantitated using an IL-6 ELISA MAX™ kit (BioLegend, #430515) per manufacturer's recommendations. For all ELISA kits, plates were developed with 3,3′,5,5′-tetramethylbenzidine (TMB) development solution or a biotinylated antihuman IL-6 detection antibody/avidin horseradish peroxidase (HRP) solution. The reaction was stopped with the stop solution, and absorbance was read at 450 nm with a microplate reader (Synergy™ HT, BioTek Instruments).

WM mouse xenograft = conditions: cited from earlier work
MWCL-1 cells [14] = assay: Sensitivity of MWCL-1 cells in coculture with HS-5 BMSCs (apoptosis, IgM); type: cell-based; conditions: HS-5 BMSC coculture vs monoculture (FIG. 10A-D)
Experimental: as §2, §4, §3

BTK = biological target: T1, BTK (Homo sapiens, UniProt Q06187); conditions: patients with relapsed/refractory CLL and other B-cell disorders; cited from earlier work
T1 construct: endogenous in cells
T1 sequence (Q06187 whole entry): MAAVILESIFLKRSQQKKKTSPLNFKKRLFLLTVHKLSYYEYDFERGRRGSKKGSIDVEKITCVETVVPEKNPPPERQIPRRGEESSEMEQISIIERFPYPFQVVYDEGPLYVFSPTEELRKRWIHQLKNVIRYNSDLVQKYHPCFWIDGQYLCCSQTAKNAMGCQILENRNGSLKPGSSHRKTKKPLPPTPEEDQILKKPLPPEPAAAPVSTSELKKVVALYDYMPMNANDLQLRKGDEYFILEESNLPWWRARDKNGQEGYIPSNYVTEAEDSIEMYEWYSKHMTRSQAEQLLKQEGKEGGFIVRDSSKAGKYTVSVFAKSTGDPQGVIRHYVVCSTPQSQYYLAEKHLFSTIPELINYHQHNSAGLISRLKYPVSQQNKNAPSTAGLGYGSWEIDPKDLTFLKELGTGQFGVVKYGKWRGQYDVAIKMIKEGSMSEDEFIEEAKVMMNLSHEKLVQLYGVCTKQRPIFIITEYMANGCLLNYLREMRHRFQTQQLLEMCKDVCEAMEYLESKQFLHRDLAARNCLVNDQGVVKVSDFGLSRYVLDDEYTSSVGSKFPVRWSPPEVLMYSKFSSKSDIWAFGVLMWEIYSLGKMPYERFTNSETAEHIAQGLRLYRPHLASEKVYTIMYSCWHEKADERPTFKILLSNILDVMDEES

human WM cells = conditions: mouse, in vivo; cited from earlier work
BCL-2 = BCL-2 (Homo sapiens, UniProt P10415); conditions: cited from earlier work
Chain of BCL-2 (P10415 whole entry): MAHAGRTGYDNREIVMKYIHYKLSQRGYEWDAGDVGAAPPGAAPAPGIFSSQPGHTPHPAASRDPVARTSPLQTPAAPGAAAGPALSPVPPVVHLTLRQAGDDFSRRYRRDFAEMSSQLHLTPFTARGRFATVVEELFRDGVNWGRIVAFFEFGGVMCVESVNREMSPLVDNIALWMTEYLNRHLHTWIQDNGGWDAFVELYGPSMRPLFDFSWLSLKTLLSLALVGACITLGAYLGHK

BCL-w = biological target: T2, BCL-w (Homo sapiens, UniProt Q92843); conditions: cited from earlier work
T2 sequence (Q92843 1-193): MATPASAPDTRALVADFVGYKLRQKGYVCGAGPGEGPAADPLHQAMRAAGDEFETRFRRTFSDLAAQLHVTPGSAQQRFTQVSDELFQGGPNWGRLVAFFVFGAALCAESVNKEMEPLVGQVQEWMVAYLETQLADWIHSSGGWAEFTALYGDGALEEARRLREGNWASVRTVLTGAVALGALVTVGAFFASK

BCL-XL = BCL-XL (Homo sapiens, UniProt Q07817); conditions: cited from earlier work
Chain of BCL-XL (Q07817 whole entry): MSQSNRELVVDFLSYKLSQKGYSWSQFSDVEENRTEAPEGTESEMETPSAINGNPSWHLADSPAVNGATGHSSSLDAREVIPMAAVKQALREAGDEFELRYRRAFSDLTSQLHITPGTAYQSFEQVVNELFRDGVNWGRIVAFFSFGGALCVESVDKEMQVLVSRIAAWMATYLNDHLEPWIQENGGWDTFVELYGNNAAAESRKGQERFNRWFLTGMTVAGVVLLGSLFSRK

[15] = absence of bone marrow stroma, 72 hours (FIG. 15)

**Q.** What does the source list for `NCCCCN(Cc1nc2ccccc2[nH]1)[C@H]1CCCc2cccnc21` [Mavorixafor]?
**A.** BM stroma-induced IgM hypersecretion, combination with ixazomib (MWCL-1 cells [1]; BMSC: HS-27A cells, 72 hours (FIG. 16)): Synergizes; BMSC-induced IgM hypersecretion (MWCL-1 cells [1]; HS-27A coculture, 48 or 72 hours (FIG. 6A-G)): inhibited; adhesion of WM cells to BMSCs (MWCL-1 cells [2]): dose-dependent decrease; migration toward BMSC-secreted CXCL12 (MWCL-1 cells [3]; HS-27A BMSCs in lower chamber (FIG. 3C)): significantly inhibited; migration toward a CXCL12 gradient (MWCL-1 cells [3]; pretreatment of MWCL-1 cells (FIG. 3B)): significantly inhibited; CXCL12-induced signaling pathway in ALL cells (ALL cells): effectively block; preestablished adhesion of ALL cells to stroma (ALL cells): disrupt; sensitivity of ALL cells to vincristine and nilotinib (ALL cells): increase sensitivity; stromal-induced migration of ALL cells (ALL cells): block; cytotoxicity in MWCL-1 cells (MWCL-1 cells [4]): not sufficient to induce cytotoxicity; sensitivity of MWCL-1 cells to apoptosis by B-cell-targeted inhibitors in presence of BMSCs (MWCL-1 cells [5]; HS-27A BMSC coculture (FIG. 5A-F)): restored the sensitivity; apoptosis of BMSCs (HS-27A and HS-5 BMSCs): much weaker effects; solubility ([6]; aqueous buffer, pH range 3.0 to 8.0): > 100 mg/mL; Solubility in water ([6]; water): only slightly soluble; IL-6 release (WM cell-BMSC coculture): no significant effect; proteolytic cleavage of caspase-3 and PARP [7]: minor effects; tolerability, treatment-related serious adverse events [8]: well tolerated, with no treatment-related serious adverse events; half-life [9]: 12 to 24 h; CXCL12-mediated Ca2+ mobilization [10]: blocked; apoptosis efficacy of ixazomib when mavorixafor is added (MWCL-1 cells [11]; [15]): Enhances; apoptosis of MWCL-1 cells, single agent (MWCL-1 cells [11]; monoculture (FIG. 8A-F, FIG. 4A-F)): minor increase

**Q.** What does the source list for “Tocilizumab: IL-6R antibody tocilizumab (Actemra, Genentech)”?
**A.** increase of CXCR4 surface expression by HS-27A BMSC coculture [12]: inhibited; IL-6-mediated IgM secretion (MWCL-1 cells [13]): inhibited; % apoptotic cells (MWCL-1 cells [5]): neither Ibrutinib nor Tocilizumab as a single therapy increased; IgM secretion (WM mouse xenograft): reduces; tumor growth (WM mouse xenograft): reduces

**Q.** With `C=CC(=O)N1CCC[C@@H](n2nc(-c3ccc(Oc4ccccc4)cc3)c3c(N)ncnc32)C1` [Ibrutinib, 1-[(3R)-3-[4-amino-3-(4-phenoxyphenyl)-1Hpyrazolo[3,4-d]pyrimidin-1-yl]-1-piperidinyl]-2-propen-1-one, reference compound] as the compound, how does the “sensitivity of MWCL-1 cells to the drug in HS-5 BMSC coculture” value (MWCL-1 cells [14]) read?
**A.** reduced the sensitivity

**Q.** What about the “% apoptotic cells” value (MWCL-1 cells [5]) of the same compound?
**A.** neither Ibrutinib nor Tocilizumab as a single therapy increased

**Q.** What about the “% apoptotic cells” value (MWCL-1 cells [11]; absence of BMSC (FIG. 13A)) of the same compound?
**A.** approximately 60%

**Q.** For `NC(=O)c1ncc(N2CCCCC2)nc1Nc1ccc(C2CCN(C[C@H]3CCN(c4ccc5c(c4)C(=O)N(C4CCC(=O)NC4=O)C5=O)C3)CC2)cc1` (stereo partly shown) [NX-2127], which “degradation of BTK” value (BTK) is on record?
**A.** clinically meaningful degradation

**Q.** With `CCc1cc(O)c(F)cc1-c1ccc2c(-c3nc4c([nH]3)CCN(C(=O)c3cnc(N5CCCCC5)cn3)C4)n[nH]c2c1` [PF-06263276] as the compound, how does the “IL-6-mediated IgM secretion” value (MWCL-1 cells [13]) read?
**A.** inhibited

**Q.** With “ulocuplumab: monoclonal anti-CXCR4 antibody” as the compound, how does the “tumor infiltration in BM, spleen, and lymph nodes” value (human WM cells) read?
**A.** reduced

**Q.** Which “IL-6-mediated IgM secretion” value (MWCL-1 cells [13]) does the source give for `CN(CC(=O)N(Cc1ccc(C2CCCCC2)cc1)c1ccc(C(=O)O)c(O)c1)S(=O)(=O)c1c(F)c(F)c(F)c(F)c1F` [BP-1-102] here?
**A.** inhibited

**Q.** Which “killing / apoptosis of MWCL-1 tumor cells” value (MWCL-1 cells [11]; [15]) does the source give for `CC(C)C[C@H](NC(=O)CNC(=O)c1cc(Cl)ccc1Cl)B(O)O` [Ixazomib, reference compound] here?
**A.** Kills

**Q.** For `CN(C)CC[C@H](CSc1ccccc1)Nc1ccc(S(=O)(=O)NC(=O)c2ccc(N3CCN(Cc4ccccc4-c4ccc(Cl)cc4)CC3)cc2)cc1[N+](=O)[O-]` [ABT-737], which “binding affinity to BCL-2” value (BCL-2) is on record?
**A.** < 1 nmol/L

**Q.** What about the “binding affinity to BCL-w” value (BCL-w) of the same compound?
**A.** < 1 nmol/L

**Q.** What about the “binding affinity to BCL-XL” value (BCL-XL) of the same compound?
**A.** < 1 nmol/L
